According to PMC7921093, “Human METTL7B is an alkyl thiol methyltransferase that metabolizes hydrogen sulfide and captopril” (Scientific Reports, 2021):

Legend:
Assay type in all cases: biochemical
[1] = target: T1, METTL7B (methyltransferase-like protein 7B) (Homo sapiens, UniProt Q6UX53); test: S-methyl captopril formation by purified enzyme, LC-MS/MS; D98A inactive
T1 construct: gene TMT1B; His-GST-METTL7B, N-terminal His-GST tag with (AP)5 linker
T1 sequence (Q6UX53 1-244): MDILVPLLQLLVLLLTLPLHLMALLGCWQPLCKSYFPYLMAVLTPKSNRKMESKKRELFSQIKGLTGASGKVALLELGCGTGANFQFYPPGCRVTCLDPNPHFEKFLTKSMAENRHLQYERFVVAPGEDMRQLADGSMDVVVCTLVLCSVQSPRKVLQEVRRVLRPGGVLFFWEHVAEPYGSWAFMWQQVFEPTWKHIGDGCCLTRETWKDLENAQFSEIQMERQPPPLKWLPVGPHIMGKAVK

[2] = target: T1, METTL7B (methyltransferase-like protein 7B); test: MTaseGlo substrate screen (AdoHcy formation) with purified enzyme
Description: MTaseGlo substrate screen (AdoHcy formation) with purified enzyme on METTL7B (methyltransferase-like protein 7B) | D-Penicillamine|++

[3] = target: T1, METTL7B (methyltransferase-like protein 7B); test: methylsulfide formation, LC-MS/MS after monobromobimane derivatization, saturable kinetics
[4] = target: T1, METTL7B (methyltransferase-like protein 7B); test: Michaelis-Menten kinetics of S-methyl captopril formation, LC-MS/MS

SMILES: C[C@H](CS)C(=O)N1CCC[C@H]1C(=O)O [captopril]
- S-methyl captopril formation by purified enzyme, LC-MS/MS; D98A inactive [1]: concentration-dependent formation of S-methyl captopril was observed upon incubation with purified wild-type His-GST-METTL7B

SMILES: CC(C)(S)[C@@H](N)C(=O)O [D-penicillamine]
- MTaseGlo substrate screen (AdoHcy formation) with purified enzyme [2]: D-Penicillamine|++

SMILES: S [hydrogen sulfide]
- methylsulfide formation, LC-MS/MS after monobromobimane derivatization, saturabl [3]: Peak area ratio (PAR) versus concentration curve for hydrogen sulfide methylation as measured by formation of methylsulfide

SMILES: C[S+](CC[C@H](N)C(=O)[O-])C[C@H]1O[C@@H](n2cnc3c(N)ncnc32)[C@H](O)[C@@H]1O (stereo partly drawn) [S-adenosyl-L-methionine]
- Michaelis-Menten kinetics of S-methyl captopril formation, LC-MS/MS [4]: the AdoMet activity curve was saturable and exhibited classic Michaelis–Menten kinetics
